# Measured values from US6069146A, “Halimide, a cytotoxic marine natural product, and derivatives thereof” (The Regents of the University of California, priority 1998, dated 2000).
# Like-named read-outs stand apart in the source and are kept apart here.
# Key:
# [1] = test system: multi-drug resistant human colon carcinoma cells; assay: Cross-resistance, multi-drug resistant colon carcinoma cells; format: cell-based
# [2] = test system: paclitaxel-resistant A2780 cell line with altered tubulin; assay: Collateral sensitivity, paclitaxel-resistant A2780; format: cell-based, human
# [3] = test system: P388 mouse leukemia cells; assay: In vivo P388 murine leukemia model, survival
# Description: The efficacy of halimide was determined in vivo in a mouse P388 model. 1×10^6 P388 mouse leukemia cells were implanted in the intraperitoneal cavity of BALB/cX DBA/2 F1 (CDF1) or C57/BL6XDBA/2 F1 (BDF1) mice (Rose et al., Cancer Res. 43:1504-1510 (1983), which is incorporated herein by reference). Halimide was dissolved in ethanol and diluted with water to a concentration of 2.7 mg/ml. Halimide was injected intraperitoneally or intravenously beginning on the first day after tumor implantation and every day thereafter for five treatments. Increases in life span were reflected by the median survival time of treated (T) versus control (C) groups; T/C was calculated. For the P388 tumor model, a T/C […] 125% is considered to be a significant increase in survival. An optimal dose of 27 mg/kg/injection, ip, produced a T/C of 153%.
# tubulin = assay: Binding to tubulin; details: each molecule of halimide to one tubulin molecule
# Text: (§1) Since cancer cells generally divide more rapidly than their normal cell counterpart, cancer cells generally are more susceptible than the normal cells to mitotic inhibitors such as halimide.
# [4] = test system: human ovarian carcinoma cell line A2780; assay: MTS cytotoxicity assay, A2780; format: cell-based; details: read-out: IC50, inhibition of cell proliferation
# Description: (§2) The cytotoxicity of halimide was assessed in vitro against the human colon carcinoma cell line HCT116 and the human ovarian carcinoma cell line A2780 by MTS assay (Ribs et al., Mol. Biol. Cell 3:184a (1992), which is incorporated herein by reference). Cells were plated at 4,000 cells/well in 96 well microliter plates and, after 24 hours, halimide (dissolved in DMSO) was added and serially diluted. The cells were incubated with the compound at 37° C. for 72 hours, then the tetrazolium dye MTS was added to a final concentration of 333 μg/ml and the electron coupling agent phenazine methosulfate was added to a final concentration of 25 μM. A dehydrogenase enzyme in live cells reduces the MTS to a form that absorbs light at […], which can be quantitated spectrophotometrically.
# (§3) Assay results are expressed as an IC50, which is the drug concentration required to inhibit cell proliferation by 50% compared to growth of untreated control cells.
# [5] = test system: dividing cells (mitotic spindle); assay: Mitotic spindle / cell division in dividing cells; format: cell-based; details: exposure of dividing cells
# Text: as §1
# carcinoma cells = assay: Cell cycle arrest of carcinoma cells; format: cell-based; details: 5 μM halimide
# Text: As used herein, the term "premitotic stage," when used in reference to cells, means that the cells have not attained the anaphase stage of mitosis and, therefore, have not yet begun to divide. […] Thus, the invention provides a method of reducing or inhibiting the ability of the cells to proceed through mitosis and, therefore, proliferate, by contacting the cells with a compound of the invention.
# [6] = test system: 2X cycled bovine brain tubulin; assay: Inhibition of tubulin polymerization (2X cycled bovine brain tubulin, GTP); format: biochemical
# Text: Thus, the compounds of the invention have an activity similar to vinca alkaloids, but are chemically distinct from the vinca alkaloids.
# [7] = test system: human colon carcinoma cell line HCT116; assay: MTS cytotoxicity assay, HCT116; format: cell-based; details: HCT-116, HCT116, 72 hours, read-out: IC50, inhibition of cell proliferation
# Description: as §2, §3
# Bcl-2 = Bcl-2 phosphorylation; format: cell-based
smiles,measurement,setting,value
C=CC(C)(C)c1nc[nH]c1/C=C1\NC(=O)C(Cc2ccccc2)NC1=O (stereo not shown) [halimide],resistance of multi-drug resistant cells (in words),[1],not resistant
same,collateral sensitivity (in words),[2],collaterally sensitive
same,survival of leukemia bearing mice (in words),[3]; P388 model,significantly prolongs the survival of leukemia bearing mice
same,increase in life span,[3]; intraperitoneal injected P388 murine leukemia model,53%
same,optimal dose,"[3]; ip, P388 model",27 mg/kg/injection
same,T/C (median survival time of treated versus control),"[3]; optimal dose 27 mg/kg/injection, ip, daily for five treatments from first day after implantation",153%
same,binding to tubulin (in words),tubulin,bound tightly to one tubulin molecule
same,IC50,"[4]; A2780, 72 hours",820 nM
same,IC50,"[4]; Homo sapiens, A2780, 72 h",800 nM
same,block of the cell in a premitotic stage (in words),[5],blocked the cell in a premitotic stage within a few minutes; the cells did not divide
same,effect on mitotic spindle (in words),[5],disappearance of the mitotic spindle
same,cell cycle arrest (in words),carcinoma cells,arrested the cells at or near the G2/M boundary of the cell cycle
same,inhibition of tubulin polymerization (in words),[6],inhibited tubulin polymerization
same,inhibition of tubulin polymerization,"[6]; 20 μM halimide, in the presence of GTP",55%
same,IC50,[7],1000 nM
same,Bcl-2 hyperphosphorylation (in words),Bcl-2,can hyperphosphorylate Bcl-2
